Where two headings read alike, the source gives them in different places.
What was measured:
[1] = tested on: Key Broadleaf Weed and Crop Species; assay: Post-emergent Test II herbicidal activity (Table 5); assay type: in vivo; conditions: post-emergence, 336 h, 14 days after application; for pest or weed control at 66 g/ha: application rate 66 g ai/ha; for pest or weed control at 132 g/ha: application rate 132 g ai/ha
Procedure, shortened: (§1)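 Plants grown in Metro-Mix 360 (pH 6.0–6.8) in a greenhouse (~15 h photoperiod, 23–29 °C day) to first or second true leaf stage, then sprayed with compound in acetone/DMSO/aqueous crop-oil-surfactant carrier at 187 L/ha by track sprayer. Injury visually scored 0–100% versus untreated plants after 14 d.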

[2] = tested on: Key Grass and Sedge Weeds as well as Grass Crops; assay: Post-emergent Test II herbicidal activity (Table 6); assay type: in vivo; conditions: post-emergence, 336 h; for pest or weed control at 66 g/ha: 66 g ai/ha; for pest or weed control at 132 g/ha: 132 g ai/ha
Procedure, shortened: as §1

[3] = ABUTH: velvetleaf (Abutilon theophrasti), read-out: Visual Growth Reduction (%) 14 Days After Application, ABUTH
[4] = AMARE: redroot pigweed (Amaranthus retroflexus), read-out: Visual Growth Reduction (%) 14 Days After Application, AMARE
[5] = BRSNN: oilseed-rape, canola (Brassica napus), read-out: Visual Growth Reduction (%) 14 Days After Application, BRSNN
[6] = CHEAL: lambsquarters (Chenopodium album), read-out: Visual Growth Reduction (%) 14 Days After Application, CHEAL
[7] = EPHHL: wild poinsettia (Euphorbia heterophylla), read-out: Visual Growth Reduction (%) 14 Days After Application, EPHHL
[8] = HELAN: sunflower (Helianthus annuus), read-out: Visual Growth Reduction (%) 14 Days After Application, HELAN
[9] = VIOTR: wild pansy (Viola tricolor), read-out: Visual Growth Reduction (%) 14 Days After Application, VIOTR
[10] = CYPES: yellow nutsedge (Cyperus esculentus), read-out: Visual Growth Reduction (%) 14 Days After Application, CYPES
[11] = DIGSA: crabgrass (Digitaria sanguinalis), read-out: Visual Growth Reduction (%) 14 Days After Application, DIGSA
[12] = ECHCG: barnyardgrass (Echinochloa crus-galli), read-out: Visual Growth Reduction (%) 14 Days After Application, ECHCG
[13] = ORYSA: rice (Oryza sativa), crop, read-out: Visual Growth Reduction (%) 14 Days After Application, ORYSA
[14] = SETFA: giant foxtail (Setaria faberi), read-out: Visual Growth Reduction (%) 14 Days After Application, SETFA
[15] = SORVU: grain sorghum (Sorghum vulgare), read-out: Visual Growth Reduction (%) 14 Days After Application, SORVU
[16] = TRZSS (wheat, Triticum aestivum), crop, read-out: Visual Growth Reduction (%) 14 Days After Application, TRZSS
[17] = ZEAMX: maize, corn (Zea mays), crop, read-out: Visual Growth Reduction (%) 14 Days After Application, ZEAMX

Work on `COC(=O)c1nc(-c2ccc(C)c(F)c2)c(F)c(N)c1Cl` [Compound 213] yielded a melting point of 127 °C, a pest or weed control at 66 g/ha [1, 3] of 95 to 100% and a pest or weed control at 132 g/ha [1, 3] of 95 to 100%. The pest or weed control at 66 g/ha [1, 4] was 95 to 100%, the pest or weed control at 132 g/ha [1, 4] was 95 to 100% and the pest or weed control at 66 g/ha [1, 5] was 85 to 94%. For the same compound, the pest or weed control at 132 g/ha [1, 5] was 85 to 94%, the pest or weed control at 66 g/ha [1, 6] was 95 to 100% and the pest or weed control at 132 g/ha [1, 6] was 95 to 100%. The pest or weed control at 66 g/ha [1, 7] was 95 to 100%, the pest or weed control at 132 g/ha [1, 7] was 95 to 100% and the pest or weed control at 66 g/ha [1, 8] was 95 to 100%. The pest or weed control at 132 g/ha [1, 8] was 95 to 100%, the pest or weed control at 66 g/ha [1, 9] was 0 to 29% and the pest or weed control at 132 g/ha [1, 9] was 0 to 29%. It also gave a pest or weed control at 66 g/ha [2, 10] of 0 to 29%, a pest or weed control at 132 g/ha [2, 10] of 45 to 59% and a pest or weed control at 66 g/ha [2, 11] of 0 to 29%. For the same compound, the pest or weed control at 132 g/ha [2, 11] was 0 to 29%, the pest or weed control at 66 g/ha [2, 12] was 85 to 94% and the pest or weed control at 132 g/ha [2, 12] was 85 to 94%. For the same compound, the pest or weed control at 66 g/ha [2, 13] was 0 to 29%, the pest or weed control at 132 g/ha [2, 13] was 0 to 29% and the pest or weed control at 66 g/ha [2, 14] was 0 to 29%. It also gave a pest or weed control at 132 g/ha [2, 14] of 0 to 29%, a pest or weed control at 66 g/ha [2, 15] of 75 to 84% and a pest or weed control at 132 g/ha [2, 15] of 95 to 100%. The pest or weed control at 66 g/ha [2, 16] was 0 to 29%, the pest or weed control at 132 g/ha [2, 16] was 0 to 29% and the pest or weed control at 66 g/ha [2, 17] was 60 to 74%. It also gave a pest or weed control at 132 g/ha [2, 17] of 75 to 84%.
